Values quoted from earlier work in patent US8691803B2, “Process for the preparation of antibiotic compounds” (Savior Lifetec Corporation, priority 2011, dated 2014).

Conditions: storage; must be stored at a low temperature

SMILES: C[C@@H](O)[C@H]1C(=O)N2C(C(=O)O)=C(S[C@@H]3CN[C@H](C(=O)Nc4cccc(C(=O)O)c4)C3)[C@H](C)[C@H]12 [ertapenem]
- Temperature stability: unstable above −20 °C
